# Experimental data from EP0361301A1, “Microbicidal compositions for the disinfection of dental impression materials” (Merz & Co. GmbH & Co., priority 1988, dated 1990).
# System: Human Immunodeficiency Virus (HIV bzw. auch HTLV III oder LAV)
# Test: HIV inactivation in suspension test versus 0.7 % formaldehyde
# Details: 0,7%ig
# Text: Die Wirksamkeit der erfindungsgemässen Zubereitungen gegen den eine AIDS-Infektion verursachenden Human Immunodeficiency Virus (HIV bzw. auch HTLV III oder LAV) im Vergleich zu 0,7%igem Formaldehyd ergab eine um eine Zehnerpotenz höhere Inaktivierung des HIV bei 1%iger Konzentration der erfindungsgemässen Zubereitung 1 in nur 5 Minuten.
smiles,measurement,value
C=O [Formaldehyd],toxischer Effekt im Suspensionsversuch,toxischen Effektes
